Source: PubChem BioAssay AID2060510 (Molecular Pharmacology Branch, DTP, NCI, 2025)

Tested on: 439559-082-T-J2-PDC spheroids viability
Assay: Anticancer human tumor 439559-082-T-J2-PDC patient-derived colon adenocarcinoma cell line growth inhibition [GQUAD]
Settings: for IC50: curve of first compound; for viability, T/C: stronger effect = lower value
Description: DNA G-quadruplex Stabilizer Agents in Combinations in Complex Spheroids
A high-throughput screen of multi-cell type tumor spheroids was designed to identify active combinations of DNA G-quadruplex stabilizer agents and targeted small molecules. Complex spheroids include a stromal component modeled by human endothelial cells (HUVEC) and fibroblasts modeled by human mesenchymal stem cells (MSCs). The concentration ranges selected for each drug and investigational agent were based upon clinically achievable concentrations if the clinical Cmax of the agent was known.
Compounds. The drugs and investigational agents: pidnarulex (CX-5461; NSC782164), APTO-253 (NSC789042), BRACO-19 (NSC847499), peposertib (NSC802822), ceralasertib (NSC780249), elimusertib (NSC800525), camonsertib (NSC841442), AZD-1390 (NSC803789), olaparib (NSC753686), talazoparib (NSC767125), ART-558 (NSC835418), sotorasib (NSC818433), MRTX-1133 (NSC836407), SN-38 (NSC673596), topotecan (NSC609699), etoposide (NSC141540), doxorubicin (NSC123127), gemcitabine (NSC613327), 5-fluorouracil (NSC19893), paclitaxel (NSC125973), vemurafenib (NSC761431), panobinostat (NSC761190), R-306465 (JNJ-16241199; NSC773264), adavosertib (NSC754352), TP-3654 (NSC805149), carboplatin (NSC241240), KSQ-4279 (NSC840948), and staurosporine (NSC755774) were obtained from the National Cancer Institute (NCI) Developmental Therapeutics Program Chemical Repository (34). The FDA-approved anticancer drug set is available from the NCI Developmental Therapeutics Program. […] The stock solutions were prepared in dimethyl sulfoxide (DMSO, Sigma-Aldrich, St. Louis, MO, cat. D2650) at 800-fold the tested concentration and stored at -70 degrees C prior to their use. All drugs and investigational agents were tested over a range starting from a high concentration at or near the clinical Cmax and decreasing in half-log increments. If the clinical Cmax for an agent had not been determined, the highest concentration tested was 10 microM.
2.3 Cell Culture. All cells were maintained in an incubator at 37 degrees C and 5% CO2 with 95% humidity. The PDC lines were cultured according to standard operating procedures established by the NCI PDMR. All PDCs were thawed and cultured in Matrigel-coated flasks prepared with a working solution of 1X Ham's F-12 nutrient mix, without supplementation (Invitrogen, cat. 11765054), 100 U/mL penicillin-streptomycin (Invitrogen, cat. 15140122), and 2.5% Matrigel (Corning Inc., cat. 354248) for the first three passages. The 857933-349-R-J2-PDC line was cultured in 6C/Colon 1B media, which includes advanced DMEM/F-12 (Thermo Fisher Scientific, cat. 12634028), 10 mM HEPES (Thermo Fisher Scientific, cat. 15630080), 1X GlutaMAX supplement (Thermo Fisher Scientific, cat. 35050061), 0.1 mg/mL primocin (InvivoGen, cat. ant-pm-2), 10% defined fetal bovine serum, heat inactivated (HyClone Laboratories Inc., cat. SH30070.03HI), 50% L-WRN conditioned media (ATCC, cat. CRL-3276), 1.25 mM N-Acetyl-L-cysteine (Sigma-Aldrich, cat. A9165), 10 mM nicotinamide (Sigma-Aldrich, cat. N0636), 1X B-27 supplement (Thermo Fisher Scientific, cat. 17504044), 1X N-2 supplement (Thermo Fisher Scientific, cat. 17502048), 10 microM Y-27632 dihydrochloride (Tocris Bioscience, cat. 1254), and 50 ng/mL human EGF recombinant protein (Thermo Fisher Scientific, cat. PHG0311). The 485176-168-R4-J1-PDC line was cultured in Panc media, which includes all 6C/Colon 1B media components plus 100 ng/mL human FGF-10 (Thermo Fisher Scientific, cat. 100-26), 500 nM SB-431542 (Selleckchem, cat. S1067), and gastrin (Tocris, cat. 3006).
[…]
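Note: spheroids exposed to the agents for 7 days before readout.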
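Throughout, for viability, T/C: percent of luminescence signal in DMSO vehicle wells taken as 100% viability.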

## Cn1ncnc1[C@H]1c2n[nH]c(=O)c3cc(F)cc(c23)N[C@@H]1c1ccc(F)cc1 + Cc1[nH]c2ccc(F)cc2c1-c1nc2c3cccnc3c3ncccc3c2[nH]1
Second compound 0.0316 µM
  IC50: > 316 nM
Second compound 0.1 µM
  IC50: > 316 nM
Second compound 0.316 µM
  IC50: > 316 nM
Second compound 1 µM
  IC50: > 316 nM
Second compound 3.16 µM
  IC50: > 316 nM
Second compound 10 µM
  IC50: > 316 nM
Second compound 0.0316 µM, first compound 0.000999 µM
  viability, T/C: 105%
Second compound 0.0316 µM, first compound 0.00316 µM
  viability, T/C: 93.7%
Second compound 0.0316 µM, first compound 0.00999 µM
  viability, T/C: 97.2%
Second compound 0.0316 µM, first compound 0.0316 µM
  viability, T/C: 89.4%
Second compound 0.0316 µM, first compound 0.0999 µM
  viability, T/C: 90.4%
Second compound 0.0316 µM, first compound 0.316 µM
  viability, T/C: 92.1%
Second compound 0.1 µM, first compound 0.000999 µM
  viability, T/C: 103%
Second compound 0.1 µM, first compound 0.00316 µM
  viability, T/C: 105%
Second compound 0.1 µM, first compound 0.00999 µM
  viability, T/C: 93.6%
Second compound 0.1 µM, first compound 0.0316 µM
  viability, T/C: 93.5%
Second compound 0.1 µM, first compound 0.0999 µM
  viability, T/C: 90%
Second compound 0.1 µM, first compound 0.316 µM
  viability, T/C: 88.9%
Second compound 0.316 µM, first compound 0.000999 µM
  viability, T/C: 113%
Second compound 0.316 µM, first compound 0.00316 µM
  viability, T/C: 99%
Second compound 0.316 µM, first compound 0.00999 µM
  viability, T/C: 99.6%
Second compound 0.316 µM, first compound 0.0316 µM
  viability, T/C: 93.4%
Second compound 0.316 µM, first compound 0.0999 µM
  viability, T/C: 97.2%
Second compound 0.316 µM, first compound 0.316 µM
  viability, T/C: 85.8%
Second compound 1 µM, first compound 0.000999 µM
  viability, T/C: 87.3%
Second compound 1 µM, first compound 0.00316 µM
  viability, T/C: 98.5%
Second compound 1 µM, first compound 0.00999 µM
  viability, T/C: 92%
Second compound 1 µM, first compound 0.0316 µM
  viability, T/C: 94.1%
Second compound 1 µM, first compound 0.0999 µM
  viability, T/C: 99.2%
Second compound 1 µM, first compound 0.316 µM
  viability, T/C: 84%
Second compound 3.16 µM, first compound 0.000999 µM
  viability, T/C: 79.6%
Second compound 3.16 µM, first compound 0.00316 µM
  viability, T/C: 87.5%
Second compound 3.16 µM, first compound 0.00999 µM
  viability, T/C: 77.3%
Second compound 3.16 µM, first compound 0.0316 µM
  viability, T/C: 85.7%
Second compound 3.16 µM, first compound 0.0999 µM
  viability, T/C: 81.8%
Second compound 3.16 µM, first compound 0.316 µM
  viability, T/C: 76.2%
Second compound 10 µM, first compound 0.000999 µM
  viability, T/C: 85.7%
Second compound 10 µM, first compound 0.00316 µM
  viability, T/C: 86.7%
Second compound 10 µM, first compound 0.00999 µM
  viability, T/C: 72.3%
Second compound 10 µM, first compound 0.0316 µM
  viability, T/C: 85.8%
Second compound 10 µM, first compound 0.0999 µM
  viability, T/C: 82%
Second compound 10 µM, first compound 0.316 µM
  viability, T/C: 61.8%
